According to the Kinase Knowledgebase extract (Sharma et al. 2016):
pIC50: −log10 of the molar value.

Biological target: EGFR (human) (UniProt P00533)
Details: A431

Sequence of EGFR (human) (P00533 whole entry, looked up): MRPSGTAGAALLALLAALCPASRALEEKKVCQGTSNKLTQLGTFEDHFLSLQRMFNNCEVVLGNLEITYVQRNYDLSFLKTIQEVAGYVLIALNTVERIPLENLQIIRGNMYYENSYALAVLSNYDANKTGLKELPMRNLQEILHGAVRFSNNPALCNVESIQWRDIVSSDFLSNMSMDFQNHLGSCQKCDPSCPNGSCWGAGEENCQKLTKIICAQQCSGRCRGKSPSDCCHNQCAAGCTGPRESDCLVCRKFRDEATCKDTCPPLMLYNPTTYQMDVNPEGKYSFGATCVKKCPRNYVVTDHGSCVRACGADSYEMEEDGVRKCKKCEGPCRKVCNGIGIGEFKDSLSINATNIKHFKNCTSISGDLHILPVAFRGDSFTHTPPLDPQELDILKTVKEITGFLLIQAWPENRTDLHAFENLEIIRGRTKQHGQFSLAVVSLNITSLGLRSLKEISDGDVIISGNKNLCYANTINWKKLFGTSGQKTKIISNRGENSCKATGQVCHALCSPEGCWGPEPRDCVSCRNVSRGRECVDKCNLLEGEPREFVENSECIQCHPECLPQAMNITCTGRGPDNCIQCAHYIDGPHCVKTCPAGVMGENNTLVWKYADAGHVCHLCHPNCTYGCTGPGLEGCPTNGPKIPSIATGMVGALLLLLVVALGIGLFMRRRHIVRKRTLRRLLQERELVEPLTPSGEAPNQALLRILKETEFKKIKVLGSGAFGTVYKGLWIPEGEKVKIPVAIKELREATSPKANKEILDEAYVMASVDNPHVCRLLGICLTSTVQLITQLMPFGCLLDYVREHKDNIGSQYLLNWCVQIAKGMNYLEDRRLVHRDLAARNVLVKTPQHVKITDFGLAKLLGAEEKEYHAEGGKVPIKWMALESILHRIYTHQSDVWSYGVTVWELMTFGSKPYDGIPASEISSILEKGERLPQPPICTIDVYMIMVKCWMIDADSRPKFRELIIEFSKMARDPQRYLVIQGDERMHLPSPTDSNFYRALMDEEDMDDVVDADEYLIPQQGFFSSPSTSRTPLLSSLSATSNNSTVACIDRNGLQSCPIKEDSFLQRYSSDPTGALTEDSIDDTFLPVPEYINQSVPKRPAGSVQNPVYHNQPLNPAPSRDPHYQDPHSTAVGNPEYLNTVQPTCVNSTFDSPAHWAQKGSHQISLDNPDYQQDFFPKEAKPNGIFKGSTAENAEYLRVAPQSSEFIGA

Structure (SMILES)	pIC50
O=C(O)c1cc(N(Cc2ccccc2O)Cc2cc(O)ccc2O)ccc1O	6.40
Oc1ccc(CNc2ccccc2O)cc1	< 3.85
Oc1ccc(CNc2ccc(O)cc2)cc1	4.48
Oc1ccc(CNc2cccc(O)c2)cc1	< 3.85
Oc1ccc(C=Nc2ccc(O)cc2)cc1	< 3.85
Oc1cccc(CNc2ccccc2O)c1	< 3.85
Oc1ccc(NCc2cccc(O)c2)cc1	< 3.85
Oc1ccc(NCc2ccccc2O)cc1	< 3.85
Oc1ccc(N=Cc2cccc(O)c2)cc1	4.48
Oc1ccc(C=Nc2cccc(O)c2)cc1	< 3.85
Oc1cccc(C=Nc2cccc(O)c2)c1	< 3.85
Oc1cccc(CNc2cccc(O)c2)c1	< 3.85

Continued, values first:

pIC50	Structure (SMILES)
4.04	Oc1ccc(N=Cc2ccccc2O)cc1
< 3.85	Oc1cccc(NCc2ccccc2O)c1
< 3.85	Oc1ccc(C=Nc2ccccc2O)cc1
3.97	Oc1cccc(C=Nc2ccccc2O)c1
< 3.85	Oc1cccc(N=Cc2ccccc2O)c1
< 3.85	Oc1ccccc1C=Nc1ccccc1O
< 3.85	Oc1ccccc1CNc1ccccc1O
